Laboratory results taken from ChEMBL document CHEMBL2021893, “Synthesis, structure-activity relationship and in vitro anti-mycobacterial evaluation of 13-n-octylberberine derivatives” (2012).
Converted amounts (≈) assume the structure as drawn.

What was measured:
Assay type in all cases: functional
[1] = system: Mycobacterium tuberculosis; assay: Antimycobacterial activity against multidrug-resistant Mycobacterium tuberculosis isolate 431 from Chinese tuberculosis patient measured 24 hrs post dose by microplate alamar blue assay; conditions: isolate 431, 24 h
[2] = system: Mycobacterium tuberculosis; assay: Antimycobacterial activity against multidrug-resistant Mycobacterium tuberculosis isolate 83 from Chinese tuberculosis patient measured 24 hrs post dose by microplate alamar blue assay; conditions: isolate 83, 24 h
[3] = system: Mycobacterium tuberculosis; assay: Antimycobacterial activity against multidrug-resistant Mycobacterium tuberculosis isolate 164 from Chinese tuberculosis patient measured 24 hrs post dose by microplate alamar blue assay; conditions: isolate 164, 24 h
[4] = system: Mycobacterium tuberculosis; assay: Antimycobacterial activity against multidrug-resistant Mycobacterium tuberculosis isolate 44 from Chinese tuberculosis patient measured 24 hrs post dose by microplate alamar blue assay; conditions: isolate 44, 24 h
[5] = system: Mycobacterium tuberculosis; assay: Antimycobacterial activity against multidrug-resistant Mycobacterium tuberculosis isolate 926 from Chinese tuberculosis patient measured 24 hrs post dose by microplate alamar blue assay; conditions: isolate 926, 24 h

Row | Compound | MIC [1] [µg/mL] | MIC [2] [µg/mL] | MIC [3] [µg/mL] | MIC [4] [µg/mL] | MIC [5] [µg/mL]
1 | CCCCCCCCc1c2[n+](cc3c(OC)c(OC)ccc13)CCc1cc3c(cc1-2)OCO3.[Cl-] | 4 | 4 | 4 | 4 | –
2 | CCCCCCCCc1c2[n+](cc3c(OC)c(OC)ccc13)CCc1cc(OCC)c(OCC)cc1-2.[Cl-] | – | 4 | 4 | 4 | 4
3 | CCCCCCCCc1c2[n+](cc3c(OCc4ccccc4)c(OC)ccc13)CCc1cc(OCc3ccccc3)c(O)cc1-2.[Cl-] | 0.25 | 1 | 1 | 0.5 | 0.5
4 | CCCCCCCCc1c2[n+](cc3c(OCC)c(OC)ccc13)CCc1cc(OCC)c(OCC)cc1-2.[Cl-] | 0.5 | 0.5 | 0.125 | 0.25 | 0.125
5 | NNC(=O)c1ccncc1 [ISONIAZID] | 64 (≈ 467 µM) | 4 (≈ 29.2 µM) | 4 (≈ 29.2 µM) | 4 (≈ 29.2 µM) | 32 (≈ 233 µM)
6 | CO[C@H]1/C=C/O[C@@]2(C)Oc3c(C)c(O)c4c(O)c(c(/C=N/N5CCN(C)CC5)c(O)c4c3C2=O)NC(=O)/C(C)=C\C=C\[C@H](C)[C@H](O)[C@@H](C)[C@@H](O)[C@@H](C)[C@H](OC(C)=O)[C@@H]1C [RIFAMPIN] | > 64 | > 64 | > 64 | 64 (≈ 77.8 µM) | > 32
